Measured values reported in ChEMBL document CHEMBL1201862, “PubChem BioAssay data set” (2004).
Values belong to the molecule of their own block, whether it stands above or below them. The source made the active and inactive calls.

Experiments:
[1] = Luminescence Cell-Based Dose Confirmation HTS to Identify Inhibitors of Polyadenylation.; assay type: functional
[2] = molecular target: Aryl hydrocarbon receptor (Homo sapiens, UniProt P35869); assay: Luminescence-based cell-based high throughput dose response assay for activators of the Aryl Hydrocarbon Receptor (AHR). [Related pubchem assays: 2796 (Primary screen (AHR activators in singlicate)), 2845 (Confirmation screen (AHR activators in triplicate)), 434939 (Counterscreen (PXR activators in triplicate)), 2804 (Summary (AHR activators))]; assay type: ADME
Aryl hydrocarbon receptor, sequence (P35869 whole entry): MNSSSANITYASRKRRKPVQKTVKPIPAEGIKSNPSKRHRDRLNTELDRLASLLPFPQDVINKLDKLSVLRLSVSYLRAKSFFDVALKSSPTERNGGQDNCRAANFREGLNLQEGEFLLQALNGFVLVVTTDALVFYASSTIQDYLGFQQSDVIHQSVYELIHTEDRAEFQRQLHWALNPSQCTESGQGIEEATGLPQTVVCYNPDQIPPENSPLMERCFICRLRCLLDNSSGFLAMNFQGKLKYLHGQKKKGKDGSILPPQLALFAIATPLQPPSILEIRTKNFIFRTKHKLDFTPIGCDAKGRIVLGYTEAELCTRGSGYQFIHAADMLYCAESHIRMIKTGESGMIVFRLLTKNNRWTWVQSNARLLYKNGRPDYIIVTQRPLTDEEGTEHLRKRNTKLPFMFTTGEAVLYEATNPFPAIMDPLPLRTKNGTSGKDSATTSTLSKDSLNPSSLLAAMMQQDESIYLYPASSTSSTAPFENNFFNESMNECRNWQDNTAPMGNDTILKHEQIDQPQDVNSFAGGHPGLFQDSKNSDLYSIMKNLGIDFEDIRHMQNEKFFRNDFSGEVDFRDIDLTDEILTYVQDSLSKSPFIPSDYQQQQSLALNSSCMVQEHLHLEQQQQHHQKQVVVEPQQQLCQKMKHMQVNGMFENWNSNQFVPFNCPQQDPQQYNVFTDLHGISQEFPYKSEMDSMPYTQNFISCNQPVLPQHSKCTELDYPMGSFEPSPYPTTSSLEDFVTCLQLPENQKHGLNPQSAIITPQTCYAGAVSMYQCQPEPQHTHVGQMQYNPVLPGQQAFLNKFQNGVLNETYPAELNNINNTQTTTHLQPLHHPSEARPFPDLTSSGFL

Bcl-2-related protein A1 [3] = molecular target: T1, Bcl-2-related protein A1 (Mus musculus, UniProt Q07440); assay: small-molecule antagonists of Bfl-1/BH3 interaction – biochemical, TR-FRET, mouse Bfl-1, confirmation (AID 621);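 also: TR-FRET binding of GST-Bfl-1 to FITC-labelled Bid peptide via terbium antibody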
T1 sequence (Q07440 whole entry): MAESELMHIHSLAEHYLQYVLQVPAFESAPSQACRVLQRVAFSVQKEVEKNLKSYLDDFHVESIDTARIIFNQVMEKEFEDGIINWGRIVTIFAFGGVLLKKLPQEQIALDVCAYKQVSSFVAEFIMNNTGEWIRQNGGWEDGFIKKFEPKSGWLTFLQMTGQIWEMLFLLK

[4] = molecular target: Glyceraldehyde-3-phosphate dehydrogenase (Homo sapiens, UniProt P04406)
Glyceraldehyde-3-phosphate dehydrogenase, sequence (P04406 whole entry): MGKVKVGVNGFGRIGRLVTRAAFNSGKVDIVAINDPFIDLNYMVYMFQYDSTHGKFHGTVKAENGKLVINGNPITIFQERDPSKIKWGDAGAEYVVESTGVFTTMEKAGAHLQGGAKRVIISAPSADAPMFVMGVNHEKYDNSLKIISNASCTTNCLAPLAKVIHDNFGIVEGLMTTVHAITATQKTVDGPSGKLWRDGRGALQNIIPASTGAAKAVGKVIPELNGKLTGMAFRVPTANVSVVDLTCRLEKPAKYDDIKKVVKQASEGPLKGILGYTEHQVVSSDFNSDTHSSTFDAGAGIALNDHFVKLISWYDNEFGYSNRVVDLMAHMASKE

Bcl-2-related protein A1 [5] = molecular target: T1, Bcl-2-related protein A1; assay: Bfl-1 binding inhibitors, SAR follow-up, biochemical, fluorescence polarization (AID 1070)
[6] = molecular target: Photoreceptor-specific nuclear receptor (Homo sapiens, UniProt Q9Y5X4); assay: ligands suppressing NR2E3 nuclear receptor activity – biochemical, TR-FRET, dose response (AID 463256); assay type: functional
Photoreceptor-specific nuclear receptor, sequence (Q9Y5X4 whole entry): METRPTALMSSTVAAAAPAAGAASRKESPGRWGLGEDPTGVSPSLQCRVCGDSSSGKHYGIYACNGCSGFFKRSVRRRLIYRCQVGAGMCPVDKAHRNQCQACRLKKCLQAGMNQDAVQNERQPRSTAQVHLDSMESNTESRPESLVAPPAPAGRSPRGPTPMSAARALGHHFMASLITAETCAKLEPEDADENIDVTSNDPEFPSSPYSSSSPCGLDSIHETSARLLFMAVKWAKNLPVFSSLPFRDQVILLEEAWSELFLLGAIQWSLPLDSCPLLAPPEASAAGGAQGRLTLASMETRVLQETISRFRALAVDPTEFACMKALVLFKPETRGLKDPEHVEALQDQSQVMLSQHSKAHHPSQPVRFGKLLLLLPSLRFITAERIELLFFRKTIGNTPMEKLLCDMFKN

[7] = molecular target: Peroxisome proliferator-activated receptor gamma/Nuclear receptor corepressor 2 (Homo sapiens, UniProt P37231+Q9Y618); assay: Counterscreen for NR2E3 inverse agonists: TR-FRET-based biochemical high throughput dose response assay to identify inverse agonists of the interaction between peroxisome proliferator-activated receptor gamma (PPARg) and nuclear receptor co-repressor 2 (NCOR2).; assay type: functional
[8] = molecular target: 5-hydroxytryptamine receptor 1E (Homo sapiens, UniProt P28566); assay: Counterscreen assay for S1P3 antagonists: Dose response cell-based high throughput screening assay to identify antagonists of the 5-Hydroxytryptamine Receptor Subtype 1E (5HT1E). [Related pubchem assays: 1429, 485 ]; assay type: functional
5-hydroxytryptamine receptor 1E, sequence (P28566 whole entry): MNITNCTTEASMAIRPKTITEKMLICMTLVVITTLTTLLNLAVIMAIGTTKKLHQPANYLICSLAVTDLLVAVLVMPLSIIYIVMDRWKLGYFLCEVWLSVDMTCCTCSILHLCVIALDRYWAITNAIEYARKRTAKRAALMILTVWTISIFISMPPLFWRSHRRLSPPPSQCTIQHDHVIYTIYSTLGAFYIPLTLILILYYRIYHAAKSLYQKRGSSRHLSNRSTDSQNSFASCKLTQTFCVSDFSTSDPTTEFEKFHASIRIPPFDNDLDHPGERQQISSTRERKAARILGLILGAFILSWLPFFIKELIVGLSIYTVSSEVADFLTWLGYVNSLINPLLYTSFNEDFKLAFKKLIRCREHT

[9] = molecular target: Sphingosine 1-phosphate receptor 3 (Homo sapiens, UniProt Q99500); assay: Dose response cell-based high throughput screening assay for antagonists of the Sphingosine 1-Phosphate Receptor 3 (S1P3). [Related pubchem assays: 1429, 485 ]; assay type: functional
Sphingosine 1-phosphate receptor 3, sequence (Q99500 whole entry): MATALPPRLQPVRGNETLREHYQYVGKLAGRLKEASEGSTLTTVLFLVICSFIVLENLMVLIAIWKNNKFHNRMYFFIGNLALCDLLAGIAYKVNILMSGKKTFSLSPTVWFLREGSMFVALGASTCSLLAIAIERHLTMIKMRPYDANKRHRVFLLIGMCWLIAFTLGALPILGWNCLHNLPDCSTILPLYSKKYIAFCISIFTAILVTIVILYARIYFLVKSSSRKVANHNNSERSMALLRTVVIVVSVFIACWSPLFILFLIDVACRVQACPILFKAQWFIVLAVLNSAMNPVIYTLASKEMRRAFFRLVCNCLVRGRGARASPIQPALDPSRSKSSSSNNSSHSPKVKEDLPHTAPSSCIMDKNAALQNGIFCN

Ion channel NompC [10] = molecular target: T2, Ion channel NompC (Danio rerio, UniProt Q7T1G6); assay: Late stage counterscreen for the probe development effort to identify selective agonists of the Transient Receptor Potential Channels 3 (TRPML3): fluorescence-based cell-based dose response assay for TRPN1 agonists.; assay type: functional
T2 sequence (Q7T1G6 whole entry): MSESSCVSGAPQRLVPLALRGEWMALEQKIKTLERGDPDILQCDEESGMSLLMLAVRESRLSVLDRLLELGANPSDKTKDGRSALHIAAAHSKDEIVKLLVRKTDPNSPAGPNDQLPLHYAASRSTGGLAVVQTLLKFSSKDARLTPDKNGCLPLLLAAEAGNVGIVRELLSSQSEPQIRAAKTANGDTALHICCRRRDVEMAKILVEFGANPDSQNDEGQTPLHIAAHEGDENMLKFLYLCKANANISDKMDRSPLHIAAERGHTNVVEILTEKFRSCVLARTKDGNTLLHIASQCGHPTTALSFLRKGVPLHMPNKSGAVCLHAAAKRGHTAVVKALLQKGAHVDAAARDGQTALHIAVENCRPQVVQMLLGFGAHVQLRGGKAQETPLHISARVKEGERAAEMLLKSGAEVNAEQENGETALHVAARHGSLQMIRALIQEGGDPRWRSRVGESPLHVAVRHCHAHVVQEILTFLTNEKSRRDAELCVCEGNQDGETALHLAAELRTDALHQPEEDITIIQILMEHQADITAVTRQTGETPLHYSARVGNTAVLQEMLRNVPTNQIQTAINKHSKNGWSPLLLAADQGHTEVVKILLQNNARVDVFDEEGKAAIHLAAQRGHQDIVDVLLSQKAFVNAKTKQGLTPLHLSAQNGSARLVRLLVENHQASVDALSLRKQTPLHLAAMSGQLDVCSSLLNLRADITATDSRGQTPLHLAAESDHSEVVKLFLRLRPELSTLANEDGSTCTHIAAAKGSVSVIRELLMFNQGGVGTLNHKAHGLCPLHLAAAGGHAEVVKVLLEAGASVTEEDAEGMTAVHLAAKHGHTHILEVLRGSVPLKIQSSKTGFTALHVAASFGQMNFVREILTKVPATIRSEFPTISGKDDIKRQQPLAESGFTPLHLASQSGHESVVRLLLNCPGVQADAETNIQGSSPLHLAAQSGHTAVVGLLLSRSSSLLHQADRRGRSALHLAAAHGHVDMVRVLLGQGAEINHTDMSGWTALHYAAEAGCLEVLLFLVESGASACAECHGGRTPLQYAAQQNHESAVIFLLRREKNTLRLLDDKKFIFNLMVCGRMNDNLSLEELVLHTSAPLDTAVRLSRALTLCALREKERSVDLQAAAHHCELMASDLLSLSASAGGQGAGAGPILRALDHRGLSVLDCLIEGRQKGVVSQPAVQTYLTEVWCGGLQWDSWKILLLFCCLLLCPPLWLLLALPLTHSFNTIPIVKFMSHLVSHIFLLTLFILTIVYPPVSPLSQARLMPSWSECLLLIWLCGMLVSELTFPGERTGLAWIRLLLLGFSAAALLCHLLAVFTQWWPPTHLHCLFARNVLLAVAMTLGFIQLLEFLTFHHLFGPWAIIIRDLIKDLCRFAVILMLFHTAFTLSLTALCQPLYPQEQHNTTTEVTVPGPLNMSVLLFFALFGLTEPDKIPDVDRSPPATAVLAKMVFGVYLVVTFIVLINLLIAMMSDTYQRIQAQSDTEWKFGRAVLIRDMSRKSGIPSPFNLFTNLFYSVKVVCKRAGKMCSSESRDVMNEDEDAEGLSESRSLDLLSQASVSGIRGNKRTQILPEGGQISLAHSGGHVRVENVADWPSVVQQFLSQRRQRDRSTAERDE

Ion channel NompC [11] = molecular target: T2, Ion channel NompC; assay: Fluorescence counterscreen assay for TRPML3 agonists: dose response cell-based high-throughput screening assay to identify agonists of the transient receptor potential channel N1 (TRPN1). [Related pubchem assays: 1526, 1424, 1448 ]; assay type: functional
Mucolipin-3 [12] = molecular target: T3, Mucolipin-3 (Homo sapiens, UniProt Q8TDD5); assay: Dose response cell-based high-throughput screening assay for agonists of the transient receptor potential channel ML3 (TRPML3). [Related pubchem assays: 1526, 1424, 1448 ]; assay type: functional
T3 sequence (Q8TDD5 whole entry): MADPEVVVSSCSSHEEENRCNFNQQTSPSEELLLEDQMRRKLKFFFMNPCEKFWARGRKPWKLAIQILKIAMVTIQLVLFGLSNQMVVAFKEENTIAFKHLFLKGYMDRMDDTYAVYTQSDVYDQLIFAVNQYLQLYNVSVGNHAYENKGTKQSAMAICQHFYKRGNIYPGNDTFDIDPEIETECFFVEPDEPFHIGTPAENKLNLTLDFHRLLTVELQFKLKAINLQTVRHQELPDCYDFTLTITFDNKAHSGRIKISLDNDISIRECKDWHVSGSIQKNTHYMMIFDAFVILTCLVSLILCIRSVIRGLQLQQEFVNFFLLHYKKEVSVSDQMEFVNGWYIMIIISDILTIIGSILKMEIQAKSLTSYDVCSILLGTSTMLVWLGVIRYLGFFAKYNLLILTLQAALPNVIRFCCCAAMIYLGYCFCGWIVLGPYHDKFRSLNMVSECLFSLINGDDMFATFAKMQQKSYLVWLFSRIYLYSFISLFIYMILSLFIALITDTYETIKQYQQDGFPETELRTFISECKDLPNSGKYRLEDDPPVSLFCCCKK

Mucolipin-3 [13] = molecular target: T3, Mucolipin-3; assay: human mucolipin-3 activators, concentration-response – cell-based, calcium fluorescence, dose response (AID 2510); assay type: functional
NADPH oxidase 1 = NADPH oxidase 1 (Homo sapiens, UniProt Q9Y5S8); assay type: functional, cell-based;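 also: Cell-based assay with luminescence read-out, IC50 derived from inhibitor dose-response curves; intracellular ROS from endogenous NOX1 in intact HT29 colon cancer cells; potency of inhibitors that lower the ROS luminescence signal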
NADPH oxidase 1, sequence (Q9Y5S8 whole entry): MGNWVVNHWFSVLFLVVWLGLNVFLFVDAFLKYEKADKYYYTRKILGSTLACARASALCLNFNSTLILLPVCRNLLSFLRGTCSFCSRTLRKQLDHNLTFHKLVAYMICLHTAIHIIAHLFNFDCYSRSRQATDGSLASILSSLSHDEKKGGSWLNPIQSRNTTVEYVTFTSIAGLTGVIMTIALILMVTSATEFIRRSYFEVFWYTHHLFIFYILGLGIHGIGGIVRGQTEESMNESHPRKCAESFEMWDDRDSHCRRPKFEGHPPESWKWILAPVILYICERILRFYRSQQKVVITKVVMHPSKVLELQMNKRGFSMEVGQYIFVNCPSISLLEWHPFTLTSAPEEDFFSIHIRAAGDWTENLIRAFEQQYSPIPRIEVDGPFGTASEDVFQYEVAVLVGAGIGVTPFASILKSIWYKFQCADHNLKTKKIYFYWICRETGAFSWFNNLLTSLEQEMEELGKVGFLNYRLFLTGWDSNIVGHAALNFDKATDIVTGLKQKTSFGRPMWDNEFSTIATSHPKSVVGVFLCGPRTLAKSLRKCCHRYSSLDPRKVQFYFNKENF

IC50 [6]: 6.11 µM (active) | IC50 [7]: 8.78 µM (active)
SMILES: Cc1cc(=O)oc2cc(OCC(=O)NCCc3c[nH]c4ccc(F)cc34)ccc12

IC50 (NADPH oxidase 1): > 17 µM (not active)
SMILES: COc1ccc2c(Cl)c(C(=O)Oc3ccccc3Cl)sc2c1

Further lines, the molecule ahead of its results:

SMILES: CC(NC(=O)c1ccc(Br)cc1Br)c1ccccc1 (centres undefined)
EC50 [1]: > 120 µM (not active)

SMILES: CCOc1ccc(-c2cc(C)n3nc(C(N)=O)cc3n2)cc1
EC50 [2]: 2.63 µM (active)

SMILES: O=C1C(Cl)=C(NCc2ccccc2)C(=O)N1c1ccc(Cl)c(Cl)c1
IC50 (Bcl-2-related protein A1 [3]): 73.7 µM (active) | IC50 [4]: > 100 µM (not active) | IC50 (Bcl-2-related protein A1 [5]): > 100 µM (not active)

SMILES: O=C(CSc1nnc(-c2ccc(Br)o2)n1Cc1ccccc1)c1ccccc1F
IC50 [8]: > 50 µM (not active) | IC50 [9]: > 50 µM (not active)

SMILES: CCCOc1cc(C)c(Cl)cc1S(=O)(=O)N(CC)CC
EC50 (Ion channel NompC [10]): > 29.9 µM (not active) | EC50 (Ion channel NompC [11]): > 29.9 µM (not active) | EC50 (Mucolipin-3 [12]): 1.6 µM (active) | EC50 (Mucolipin-3 [13]): 4.72 µM (active)
